Test results from ChEMBL document CHEMBL4507273 (2021).

Tests used:
[1] = target: Serine/threonine-protein kinase 38-like (Homo sapiens) (UniProt Q9Y2H1); details: Compound concentration 1000.0 nM
[2] = target: Serine/threonine-protein kinase DCLK1 (Homo sapiens) (UniProt O15075); details: Compound concentration 1000.0 nM
[3] = target: Serine/threonine-protein kinase WNK3 (Homo sapiens) (UniProt Q9BYP7); details: Compound concentration 1000.0 nM
[4] = target: Serine/threonine-protein kinase D3 (Homo sapiens) (UniProt O94806); details: Compound concentration 1000.0 nM
[5] = target: RAC-gamma serine/threonine-protein kinase (Homo sapiens) (UniProt Q9Y243); details: Compound concentration 1000.0 nM
[6] = tested on: Epidermal growth factor receptor (Homo sapiens), P00533 [UNDEFINED MUTATION]; details: Compound concentration 1000.0 nM
[7] = target: Ribosomal protein S6 kinase alpha-3 (Homo sapiens) (UniProt P51812); details: Compound concentration 1000.0 nM
[8] = target: Protein-tyrosine kinase 6 (Homo sapiens) (UniProt Q13882); details: Compound concentration 1000.0 nM
[9] = target: G protein-coupled receptor kinase 3 (Homo sapiens) (UniProt P35626); details: Compound concentration 1000.0 nM
[10] = target: Serine/threonine-protein kinase SIK3 (Homo sapiens) (UniProt Q9Y2K2); details: Compound concentration 1000.0 nM
[11] = target: Fibroblast growth factor receptor 1 (Homo sapiens) (UniProt P11362); details: Compound concentration 1000.0 nM
[12] = target: Kappa-type opioid receptor (Homo sapiens, UniProt P41145); details: Compound concentration 10.0 uM
[13] = target: Interleukin-1 receptor-associated kinase 3 (Homo sapiens) (UniProt Q9Y616); details: Compound concentration 1000.0 nM
[14] = target: Homeodomain-interacting protein kinase 4 (Homo sapiens) (UniProt Q8NE63); details: Compound concentration 1000.0 nM
[15] = tested on: Receptor-type tyrosine-protein kinase FLT3 (Homo sapiens), P36888 [UNDEFINED MUTATION]; details: Compound concentration 1000.0 nM
[16] = target: Myosin-IIIa (Homo sapiens) (UniProt Q8NEV4); details: Compound concentration 1000.0 nM
[17] = target: Serine/threonine-protein kinase 16 (Homo sapiens) (UniProt O75716); details: Compound concentration 1000.0 nM
[18] = tested on: ALK tyrosine kinase receptor (Homo sapiens), Q9UM73 [C1156Y]; details: Compound concentration 1000.0 nM
[19] = target: Mitogen-activated protein kinase 12 (Homo sapiens) (UniProt P53778); details: Compound concentration 1000.0 nM
[20] = target: Alpha-2A adrenergic receptor (Homo sapiens, UniProt P08913); assay: GPCRScan assay: inhibition of Alpha2A; parameters: radioligand conc. used [nm] 1.0 – 3.0, parental cells stable MDCK
[21] = target: Serine/threonine-protein kinase VRK2 (Homo sapiens) (UniProt Q86Y07); details: Compound concentration 1000.0 nM
[22] = target: Homeodomain-interacting protein kinase 2 (Homo sapiens) (UniProt Q9H2X6); details: Compound concentration 1000.0 nM
[23] = target: Beta-3 adrenergic receptor (Homo sapiens) (UniProt P13945); details: Compound concentration 10.0 uM
[24] = target: Serine/threonine-protein kinase 3 (Homo sapiens) (UniProt Q13188); details: Compound concentration 1000.0 nM
[25] = target: Hormonally up-regulated neu tumor-associated kinase (Homo sapiens) (UniProt P57058); details: Compound concentration 1000.0 nM
[26] = target: Tyrosine-protein kinase ABL2 (Homo sapiens) (UniProt P42684); details: Compound concentration 1000.0 nM
[27] = target: Inhibitor of nuclear factor kappa-B kinase subunit beta (Homo sapiens) (UniProt O14920); details: Compound concentration 1000.0 nM
[28] = tested on: Epidermal growth factor receptor (Homo sapiens), P00533 [G719C]; details: Compound concentration 1000.0 nM
[29] = target: Tyrosine-protein kinase Yes (Homo sapiens) (UniProt P07947); details: Compound concentration 1000.0 nM
[30] = target: Cyclin-dependent kinase 4 (Homo sapiens) (UniProt P11802); details: Compound concentration 1000.0 nM
[31] = target: Fibroblast growth factor receptor 3 (Homo sapiens) (UniProt P22607); details: Compound concentration 1000.0 nM
[32] = target: Ephrin type-B receptor 2 (Homo sapiens) (UniProt P29323); details: Compound concentration 1000.0 nM
[33] = target: Glycogen synthase kinase-3 alpha (Homo sapiens) (UniProt P49840); details: Compound concentration 1000.0 nM
[34] = target: MAP/microtubule affinity-regulating kinase 3 (Homo sapiens) (UniProt P27448); details: Compound concentration 1000.0 nM
[35] = target: Muscarinic acetylcholine receptor M5 (Homo sapiens) (UniProt P08912); details: Compound concentration 10.0 uM
[36] = target: Cyclin-G-associated kinase (Homo sapiens) (UniProt O14976); details: Compound concentration 1000.0 nM
[37] = target: GABA-A receptor; anion channel (Rattus norvegicus) (UniProt O09028+P15431+P18506+P18508+P19969+P20236+P23574+P23576+P28471+P28473+P30191+P62813+P63079+P63138+Q91ZM7+Q9ES14); details: Compound concentration 10.0 uM
[38] = tested on: Proto-oncogene tyrosine-protein kinase receptor Ret (Homo sapiens), P07949 [M918T]; details: Compound concentration 1000.0 nM
[39] = target: Muscarinic acetylcholine receptor M4 (Homo sapiens) (UniProt P08173); details: Compound concentration 10.0 uM
[40] = target: Serine/threonine-protein kinase WNK4 (Homo sapiens) (UniProt Q96J92); details: Compound concentration 1000.0 nM
[41] = target: Serine/threonine-protein kinase 36 (Homo sapiens) (UniProt Q9NRP7); details: Compound concentration 1000.0 nM
[42] = target: Protein-tyrosine kinase 2-beta (Homo sapiens) (UniProt Q14289); details: Compound concentration 1000.0 nM
[43] = target: SRSF protein kinase 2 (Homo sapiens) (UniProt P78362); details: Compound concentration 1000.0 nM
[44] = target: Casein kinase I isoform epsilon (Homo sapiens) (UniProt P49674); details: Compound concentration 1000.0 nM

Chain of Ephrin type-B receptor 2 (Homo sapiens) (P29323 whole entry): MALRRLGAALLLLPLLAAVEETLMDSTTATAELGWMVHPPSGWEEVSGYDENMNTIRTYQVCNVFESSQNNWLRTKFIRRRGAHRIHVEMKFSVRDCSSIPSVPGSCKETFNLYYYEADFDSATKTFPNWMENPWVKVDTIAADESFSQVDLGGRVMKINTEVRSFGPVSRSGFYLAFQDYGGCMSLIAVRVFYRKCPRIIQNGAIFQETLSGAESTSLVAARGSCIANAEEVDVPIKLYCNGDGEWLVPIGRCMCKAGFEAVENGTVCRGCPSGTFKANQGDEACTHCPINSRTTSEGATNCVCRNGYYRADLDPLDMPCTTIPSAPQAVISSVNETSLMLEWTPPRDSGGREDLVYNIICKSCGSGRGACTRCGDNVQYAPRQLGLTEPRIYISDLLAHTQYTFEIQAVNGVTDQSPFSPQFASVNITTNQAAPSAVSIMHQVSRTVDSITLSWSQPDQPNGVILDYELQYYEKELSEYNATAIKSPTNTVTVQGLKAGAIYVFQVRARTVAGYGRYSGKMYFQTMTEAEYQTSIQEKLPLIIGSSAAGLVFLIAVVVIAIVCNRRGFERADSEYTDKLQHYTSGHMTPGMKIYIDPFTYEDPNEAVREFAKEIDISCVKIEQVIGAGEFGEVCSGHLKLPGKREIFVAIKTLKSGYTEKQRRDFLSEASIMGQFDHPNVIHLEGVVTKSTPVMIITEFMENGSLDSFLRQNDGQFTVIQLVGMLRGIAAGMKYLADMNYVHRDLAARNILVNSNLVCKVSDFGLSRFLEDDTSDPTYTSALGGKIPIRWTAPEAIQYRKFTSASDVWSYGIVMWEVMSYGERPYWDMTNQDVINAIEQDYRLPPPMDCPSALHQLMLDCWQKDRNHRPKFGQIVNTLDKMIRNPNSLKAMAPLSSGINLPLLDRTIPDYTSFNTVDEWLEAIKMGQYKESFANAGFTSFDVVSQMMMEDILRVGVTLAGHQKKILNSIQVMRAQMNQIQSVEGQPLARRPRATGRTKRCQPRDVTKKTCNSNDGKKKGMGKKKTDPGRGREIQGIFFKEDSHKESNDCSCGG
Chain of Tyrosine-protein kinase ABL2 (Homo sapiens) (P42684 whole entry): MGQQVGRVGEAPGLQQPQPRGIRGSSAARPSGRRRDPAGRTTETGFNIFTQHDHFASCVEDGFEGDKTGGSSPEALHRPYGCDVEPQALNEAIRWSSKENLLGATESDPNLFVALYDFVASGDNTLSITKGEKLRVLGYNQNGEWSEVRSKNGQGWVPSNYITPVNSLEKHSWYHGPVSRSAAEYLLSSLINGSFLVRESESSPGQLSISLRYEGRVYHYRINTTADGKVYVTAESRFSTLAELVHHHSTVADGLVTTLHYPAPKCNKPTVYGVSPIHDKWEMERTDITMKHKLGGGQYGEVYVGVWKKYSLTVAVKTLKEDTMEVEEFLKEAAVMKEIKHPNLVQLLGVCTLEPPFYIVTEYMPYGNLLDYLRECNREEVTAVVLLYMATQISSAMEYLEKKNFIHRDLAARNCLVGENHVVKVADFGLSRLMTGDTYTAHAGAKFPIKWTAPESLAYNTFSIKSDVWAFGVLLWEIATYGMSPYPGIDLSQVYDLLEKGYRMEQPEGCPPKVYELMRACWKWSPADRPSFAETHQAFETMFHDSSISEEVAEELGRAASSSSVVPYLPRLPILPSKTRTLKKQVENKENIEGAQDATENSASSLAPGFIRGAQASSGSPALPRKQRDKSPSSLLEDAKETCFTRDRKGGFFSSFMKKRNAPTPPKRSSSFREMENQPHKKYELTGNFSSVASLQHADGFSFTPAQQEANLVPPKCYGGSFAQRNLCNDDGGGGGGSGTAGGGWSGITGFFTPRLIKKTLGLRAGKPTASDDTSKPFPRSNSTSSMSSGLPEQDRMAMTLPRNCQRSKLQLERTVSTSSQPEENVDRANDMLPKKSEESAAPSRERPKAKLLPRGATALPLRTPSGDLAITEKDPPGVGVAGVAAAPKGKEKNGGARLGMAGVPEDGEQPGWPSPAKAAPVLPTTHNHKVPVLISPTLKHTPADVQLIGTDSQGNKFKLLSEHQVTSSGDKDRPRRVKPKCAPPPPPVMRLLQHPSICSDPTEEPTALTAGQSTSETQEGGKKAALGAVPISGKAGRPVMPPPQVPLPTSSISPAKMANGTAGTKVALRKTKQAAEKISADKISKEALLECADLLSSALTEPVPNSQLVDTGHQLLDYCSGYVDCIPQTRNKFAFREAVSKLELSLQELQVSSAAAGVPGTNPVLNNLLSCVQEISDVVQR
Chain of Homeodomain-interacting protein kinase 2 (Homo sapiens) (Q9H2X6 whole entry, looked up): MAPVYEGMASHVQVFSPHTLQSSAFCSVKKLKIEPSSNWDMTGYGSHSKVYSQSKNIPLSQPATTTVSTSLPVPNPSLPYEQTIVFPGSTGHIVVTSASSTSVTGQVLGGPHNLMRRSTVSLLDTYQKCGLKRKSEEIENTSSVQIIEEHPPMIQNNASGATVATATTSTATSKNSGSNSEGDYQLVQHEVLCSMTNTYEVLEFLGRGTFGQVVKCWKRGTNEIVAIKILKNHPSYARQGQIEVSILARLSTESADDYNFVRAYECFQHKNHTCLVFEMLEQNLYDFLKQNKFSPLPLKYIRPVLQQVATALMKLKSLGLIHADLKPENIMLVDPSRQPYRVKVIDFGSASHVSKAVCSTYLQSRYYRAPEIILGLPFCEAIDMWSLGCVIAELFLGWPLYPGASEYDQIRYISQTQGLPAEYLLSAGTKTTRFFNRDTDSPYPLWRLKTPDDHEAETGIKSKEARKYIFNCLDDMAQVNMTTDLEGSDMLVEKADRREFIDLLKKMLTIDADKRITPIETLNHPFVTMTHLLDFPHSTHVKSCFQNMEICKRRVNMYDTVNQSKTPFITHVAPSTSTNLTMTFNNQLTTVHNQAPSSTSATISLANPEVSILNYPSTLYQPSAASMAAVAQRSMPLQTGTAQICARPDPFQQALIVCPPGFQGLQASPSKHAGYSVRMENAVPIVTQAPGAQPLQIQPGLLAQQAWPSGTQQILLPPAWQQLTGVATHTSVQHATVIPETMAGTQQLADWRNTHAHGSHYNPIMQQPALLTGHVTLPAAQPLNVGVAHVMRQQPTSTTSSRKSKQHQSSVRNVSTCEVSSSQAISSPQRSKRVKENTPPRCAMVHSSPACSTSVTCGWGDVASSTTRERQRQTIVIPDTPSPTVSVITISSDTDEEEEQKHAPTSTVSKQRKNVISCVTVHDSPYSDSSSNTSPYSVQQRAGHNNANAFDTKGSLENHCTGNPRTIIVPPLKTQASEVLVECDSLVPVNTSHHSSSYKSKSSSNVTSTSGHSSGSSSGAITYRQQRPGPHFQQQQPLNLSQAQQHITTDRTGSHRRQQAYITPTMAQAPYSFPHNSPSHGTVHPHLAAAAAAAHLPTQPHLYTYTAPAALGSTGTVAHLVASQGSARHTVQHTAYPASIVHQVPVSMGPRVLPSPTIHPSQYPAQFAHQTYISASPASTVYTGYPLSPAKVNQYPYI
Chain of Protein-tyrosine kinase 2-beta (Homo sapiens) (Q14289 whole entry, looked up): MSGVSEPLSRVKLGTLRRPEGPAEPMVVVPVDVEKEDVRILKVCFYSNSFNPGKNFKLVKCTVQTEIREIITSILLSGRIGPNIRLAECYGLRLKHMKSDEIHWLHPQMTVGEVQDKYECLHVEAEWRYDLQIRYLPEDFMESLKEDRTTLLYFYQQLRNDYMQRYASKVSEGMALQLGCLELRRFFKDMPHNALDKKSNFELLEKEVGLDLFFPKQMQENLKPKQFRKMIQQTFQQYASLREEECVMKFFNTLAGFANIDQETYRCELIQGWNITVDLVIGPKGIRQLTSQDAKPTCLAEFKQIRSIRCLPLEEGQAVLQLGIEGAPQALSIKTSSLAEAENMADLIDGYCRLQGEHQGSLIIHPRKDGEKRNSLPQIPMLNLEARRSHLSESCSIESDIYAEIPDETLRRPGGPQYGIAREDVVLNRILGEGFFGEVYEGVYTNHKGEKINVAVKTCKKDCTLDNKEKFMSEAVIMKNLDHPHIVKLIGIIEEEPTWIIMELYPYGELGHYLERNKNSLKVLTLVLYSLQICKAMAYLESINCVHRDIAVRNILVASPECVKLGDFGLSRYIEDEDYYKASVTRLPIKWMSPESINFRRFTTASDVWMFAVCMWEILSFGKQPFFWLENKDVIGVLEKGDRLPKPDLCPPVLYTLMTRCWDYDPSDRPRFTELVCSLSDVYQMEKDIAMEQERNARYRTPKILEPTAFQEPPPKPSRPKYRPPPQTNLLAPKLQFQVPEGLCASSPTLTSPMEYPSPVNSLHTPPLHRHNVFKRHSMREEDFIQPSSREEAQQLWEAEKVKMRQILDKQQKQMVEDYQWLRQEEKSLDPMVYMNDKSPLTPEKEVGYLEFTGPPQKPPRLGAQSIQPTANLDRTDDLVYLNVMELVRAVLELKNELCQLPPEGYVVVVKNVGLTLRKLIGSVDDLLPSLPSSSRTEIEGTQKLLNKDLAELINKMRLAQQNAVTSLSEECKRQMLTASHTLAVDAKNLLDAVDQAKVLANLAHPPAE
Chain of Glycogen synthase kinase-3 alpha (Homo sapiens) (P49840 2-483 limits assumed): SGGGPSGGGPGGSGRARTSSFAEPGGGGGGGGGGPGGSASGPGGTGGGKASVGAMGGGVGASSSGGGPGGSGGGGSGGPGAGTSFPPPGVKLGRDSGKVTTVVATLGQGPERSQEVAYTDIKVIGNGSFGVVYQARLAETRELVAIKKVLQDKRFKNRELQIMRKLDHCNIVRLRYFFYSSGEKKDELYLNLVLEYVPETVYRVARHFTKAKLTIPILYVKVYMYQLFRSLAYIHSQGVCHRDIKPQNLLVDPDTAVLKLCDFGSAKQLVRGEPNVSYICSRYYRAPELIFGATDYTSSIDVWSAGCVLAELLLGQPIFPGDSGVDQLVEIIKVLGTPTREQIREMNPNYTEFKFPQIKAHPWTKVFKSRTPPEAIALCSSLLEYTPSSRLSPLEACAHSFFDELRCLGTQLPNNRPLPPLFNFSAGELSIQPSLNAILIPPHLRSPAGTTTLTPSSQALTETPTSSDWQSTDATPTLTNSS

Molecule `CNCc1ccccc1-c1csc([C@H](C)Nc2nc(C)nc3cc(OC)c(OC)cc23)c1` [BAY-294] has a residual activity [1] of 94%, a residual activity [2] of 87% and a residual activity [3] of 98%. The residual activity [4] was 100%, the residual activity [5] was 95% and the residual activity [6] was 100%. For the same molecule, the residual activity [7] was 100%, the residual activity [8] was 100% and the residual activity [9] was 91%. It also gave a residual activity [10] of 78%, a residual activity [11] of 100% and an inhibition [12] of 64.4%. For the same molecule, the residual activity [13] was 83%, the residual activity [14] was 91% and the residual activity [15] was 81%. It also gave a residual activity [16] of 100%, a residual activity [17] of 100% and a residual activity [18] of 100%. The residual activity [19] was 100%, the Ki [20] was 127 nM and the residual activity [21] was 73%. It also gave a residual activity [22] of 76%, an inhibition [23] of 38.2% and a residual activity [24] of 89%. The residual activity [25] was 100%, the residual activity [26] was 100% and the residual activity [27] was 83%. The residual activity [28] was 85%, the residual activity [29] was 100% and the residual activity [30] was 77%. It also gave a residual activity [31] of 98%, a residual activity [32] of 100% and a residual activity [33] of 100%. For the same molecule, the residual activity [34] was 100%, the inhibition [35] was 54.1% and the residual activity [36] was 90%. The inhibition [37] was -1.27%, the residual activity [38] was 99% and the inhibition [39] was 59.4%. The residual activity [40] was 90%, the residual activity [41] was 100% and the residual activity [42] was 100%. For the same molecule, the residual activity [43] was 52% and the residual activity [44] was 91%.
Molecule `CNCc1ccccc1-c1csc([C@@H](C)Nc2nc(C)nc3cc(OC)c(OC)cc23)c1` [BAY-293] has a residual activity [1] of 86%, a residual activity [2] of 86% and a residual activity [3] of 100%. The residual activity [4] was 92%, the residual activity [5] was 92% and the residual activity [6] was 61%. It also gave a residual activity [7] of 80%, a residual activity [8] of 100% and a residual activity [9] of 98%. For the same molecule, the residual activity [10] was 90%, the residual activity [11] was 100% and the inhibition [12] was 26.9%. For the same molecule, the residual activity [13] was 75%, the residual activity [14] was 86% and the residual activity [15] was 48%. For the same molecule, the residual activity [16] was 100%, the residual activity [17] was 97% and the residual activity [18] was 100%. For the same molecule, the residual activity [19] was 100%, the Ki [20] was 381 nM and the residual activity [21] was 89%. It also gave a residual activity [22] of 86%, an inhibition [23] of 20% and a residual activity [24] of 85%. The residual activity [25] was 100%, the residual activity [26] was 100% and the residual activity [27] was 94%. It also gave a residual activity [28] of 63%, a residual activity [29] of 100% and a residual activity [30] of 88%. It also gave a residual activity [31] of 90%, a residual activity [32] of 100% and a residual activity [33] of 100%. For the same molecule, the residual activity [34] was 89%, the inhibition [35] was 64.8% and the residual activity [36] was 88%. It also gave an inhibition [37] of 0.89%, a residual activity [38] of 70% and an inhibition [39] of 43.1%. It also gave a residual activity [40] of 100%, a residual activity [41] of 100% and a residual activity [42] of 100%. For the same molecule, the residual activity [43] was 61% and the residual activity [44] was 99%.
